For series [1], the target named is porcine trypsin (Sus scrofa, UniProt P00761). The series is described as follows: Peptide resistance to proteolytic digestion by trypsin. It counts as in vitro ADME. The settings on record: 50 U of porcine trypsin in PBS, 30 minutes at 37° C. How it is done:
(§1) This example illustrates peptide stability under various stress conditions such as high temperature, low pH, reducing agents, and proteases. To determine resistance to high temperatures, cystine-dense peptides (CDPs) were incubated at 0.5 mM in PBS at 75° C. or 100° C. for 1 h and pelleted, and the supernatant was analyzed with reversed-phase chromatography (RPC). To determine resistance to proteolytic digestion, CDPs were mixed with 50 U of porcine pepsin, in simulated gastric fluid at pH 1.0, or 50 U of porcine trypsin in PBS, incubated for 30 minutes at 37° C. and analyzed with RPC. Oxidized and reduced forms (prepared through addition 10 mM DTT) were compared. Circular Dichroism spectroscopy was used in order to measure the secondary structure of peptides with a Jasco J-720W spectropolarimeter in a cell with a 1.0-mm path length, and CDPs were diluted into 20 mM phosphate buffer, pH 7.4, at a concentration of 15-25 μM. These conditions were expected to denature or degrade conventional globular proteins and many peptides. In TABLE 10, “high” resistance indicated a high amount of the peptide remained or was retained as unmodified under the given experimental conditions and “low” resistance indicated a low amount of the peptide remained or was retained unmodified under the given experimental conditions. […]

In series [2] the target is porcine pepsin (Sus scrofa, UniProt P00791). The experiment in a line: Peptide resistance to proteolytic digestion by pepsin. In kind it is in vitro ADME. Conditions: 50 U of porcine pepsin in simulated gastric fluid at pH 1.0, 30 minutes at 37° C. How it is done: as §1

Here are results for one compound from US20210171589A1, “TRUNCATED CARTILAGE-HOMING PEPTIDES AND PEPTIDE COMPLEXES AND METHODS OF USE THEREOF” (BLAZE BIOSCIENCE, INC., priority 2018, published 2021).

Bridge positions count the residues as written; N and C are the ends. Peptide text beside a SMILES is read from it.

Chain of porcine trypsin (P00761 9-231): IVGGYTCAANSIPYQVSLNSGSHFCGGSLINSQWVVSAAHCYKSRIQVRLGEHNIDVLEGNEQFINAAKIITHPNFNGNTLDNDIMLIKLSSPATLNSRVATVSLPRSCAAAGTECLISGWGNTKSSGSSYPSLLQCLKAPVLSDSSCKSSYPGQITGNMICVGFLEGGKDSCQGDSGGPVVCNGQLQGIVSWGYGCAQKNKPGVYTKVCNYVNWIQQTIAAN
Chain of porcine pepsin (P00791 60-385): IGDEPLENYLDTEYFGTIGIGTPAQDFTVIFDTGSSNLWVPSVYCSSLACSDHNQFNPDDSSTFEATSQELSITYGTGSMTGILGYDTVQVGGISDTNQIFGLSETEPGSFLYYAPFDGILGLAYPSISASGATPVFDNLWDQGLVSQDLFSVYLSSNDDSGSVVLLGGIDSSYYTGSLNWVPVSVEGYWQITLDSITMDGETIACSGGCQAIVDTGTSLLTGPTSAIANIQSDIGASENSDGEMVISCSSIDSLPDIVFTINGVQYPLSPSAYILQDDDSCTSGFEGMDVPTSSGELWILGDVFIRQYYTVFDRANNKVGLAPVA

For the compound `CC[C@H](C)[C@@H]1NC(=O)[C@@H]2CSSC[C@H](NC(=O)[C@H](CCCCN)NC(=O)[C@@H](NC(=O)[C@H](CC(N)=O)NC(=O)[C@@H](NC(=O)[C@@H]3CCCN3C(=O)[C@@H](NC(=O)CNC(=O)[C@H](CO)NC(=O)CN)C(C)C)[C@@H](C)CC)C(C)C)C(=O)N[C@@H](CCCNC(=N)N)C(=O)NCC(=O)N[C@@H](CO)C(=O)N[C@@H](CCCNC(=N)N)C(=O)N[C@@H](CC(=O)O)C(=O)N[C@H]3CSSC[C@H](NC(=O)[C@H](CCCCN)NC(=O)[C@H](CO)NC(=O)[C@H](CC(N)=O)NC1=O)C(=O)N[C@@H](Cc1c[nH]cn1)C(=O)N[C@H](C(=O)N[C@H](C(=O)N1CCC[C@H]1C(=O)O)[C@@H](C)O)CSSC[C@H](NC(=O)[C@@H]1CCCN1C(=O)[C@H](CC(=O)O)NC(=O)[C@H](CC(C)C)NC3=O)C(=O)N[C@@H](CCCCN)C(=O)N[C@@H](CCCCN)C(=O)N[C@@H](C)C(=O)NCC(=O)N[C@@H](CCSC)C(=O)N[C@@H](CCCNC(=N)N)C(=O)N[C@@H](Cc1ccccc1)C(=O)NCC(=O)N[C@@H](CCCCN)C(=O)N2` [compound 150] (H-GSGVPINVKCRGSRDCLDPCKKAGMRFGKCINSKCHCTP-OH; disulfide 10-30, 16-35, 20-37; N-terminus and C-terminus assumed), in series [1], the “Resistance to Trypsin” value is recorded as “High”. The “Resistance to Pepsin” value in series [2] was “High”.
